# In patent US9765016B2, “S1P modulating agents” (BIOGEN MA INC., priority 2013, dated 2017):
# Target: T1, human S1P5 (Homo sapiens, UniProt Q9H228)
# T1 construct: host or cells: recombinant CHEM cells
# Experiment: Calcium flux assay, antagonist assay format (S1P receptor activity assay)
# Assay type: cell-based
# Procedure: Agonist percentage activation determinations were obtained by assaying sample compounds and referencing the Emax control for each receptor profiled. Antagonist percentage inhibition determinations were obtained by assaying sample compounds and referencing the control EC80 wells for each receptor profiled.
# Sample compounds were plated in an eight-point, four-fold dilution series in duplicate with a top concentration of 10 μM. The concentrations described here reflect the final concentration of the compounds during the antagonist assay.
# Using the EC80 values determined during the agonist assay, stimulated all pre-incubated sample compound and reference antagonist (if applicable) wells with EC80 of reference agonist.
# T1 sequence (Q9H228 whole entry): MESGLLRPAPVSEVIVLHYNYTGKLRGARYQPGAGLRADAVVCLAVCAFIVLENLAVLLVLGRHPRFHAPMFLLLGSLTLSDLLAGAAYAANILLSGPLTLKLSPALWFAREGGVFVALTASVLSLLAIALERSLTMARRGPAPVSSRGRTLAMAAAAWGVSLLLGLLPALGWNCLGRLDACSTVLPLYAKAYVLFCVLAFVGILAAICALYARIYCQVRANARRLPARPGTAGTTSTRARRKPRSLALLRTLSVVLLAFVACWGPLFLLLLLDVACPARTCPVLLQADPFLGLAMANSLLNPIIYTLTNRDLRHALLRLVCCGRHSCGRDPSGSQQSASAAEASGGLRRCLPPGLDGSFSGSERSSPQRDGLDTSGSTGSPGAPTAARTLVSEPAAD
smiles,measurement,value
"Cc1cc(O[C@H]2CC[C@@H]([Si](C)(C)C)CC2)c(CN2CCC(C(=O)O)CC2)c2ccccc12 [Example 25, 1-((4-methyl-2-((cis-4-(trimethylsilyl)cyclohexyl)oxy)naphthalen-1-yl)methyl)piperidine-4-carboxylic acid]",IC50,≤ 100 nM
